The subject of one assay is SREBP-1. Kind of assay: SREBP-1 regulation in HepG2 cells. The assay is classed as cell-based, human. Particulars: data not shown. From the text:
Next we investigated the effect of INV-75 in regulating LDL receptor expression in the same cells using a similar protocol to assess dose and temporal dependence. FIGS. 5E and 5F depict the time course of LDL receptor expression and dose dependence in response to INV-75. […] INV-75 had no effects on SREBP-1 regulation (data not shown). Simultaneously multiple genes involved in cholesterol synthesis and regulation, apolipoprotein gene expression and expression of PCSK9 (Proprotein convertase subtilisin/kexin type 9) was tested. The latter gene is known to regulate LDL receptor expression by binding to the epidermal growth factor-like repeat A (EGF-A) domain of the low-density lipoprotein receptor (LDLR), inducing LDLR degradation. Inhibition of PSCK9 function is currently being explored as a means of lowering cholesterol levels.

Assay [1] has as its system Watanabe Heritable Hyperlipidemic Rabbits (WHHL). Kind of assay: Lucigenin chemiluminescence for NADPH derived superoxide in WHHL aortic lysates. The assay is classed as in vivo, rabbit. As to conditions: vs control. The method, then: Oxidative stress has been implicated in atherosclerosis. Superoxide (O2^•−) derived from NADPH could potentially trigger a free radical chain reaction which could potentially catalyze atherosclerotic plaque formation. Rabbit aorta was homogenized in PBS, and the protein concentration was adjusted to 5 μg/μl. 20 ul/well of cell lysates were plated on a 96-well microplate in Kreps-Hepes Buffer (pH=7.4; initially gassed with 95% O2, and 5% CO2). The baseline O2^•− production was measured with 5 μM Lucigenin. NADPH induced O2^•− production was measured by adding NADPH (100 μM). Measurements were performed with Berthold Luminometer LB 960. Luminometer settings were 0.1 s measurement and 30s kinetics.

The next assay deals with T1, PPARδ (Homo sapiens, UniProt Q03181).
T1 construct: GAL4-PPARδ-LBD plasmid+UAS-Luciferase; expressed in transfected cells; host or cells: HepG2
Kind of assay: GAL4-PPARδ-LBD luciferase assay in HepG2 cells. The assay is classed as cell-based. Particulars: 1 μM to 1000 μM. From the text:
(§1) We used a reporter gene assay in HepG2 cells to screen for agonists of the peroxisome proliferator-activated receptors. Peroxisome proliferator-activated receptors (PPARs) and other members of the nuclear hormone receptor family are important drug targets for the treatment of metabolic diseases. PPARs play crucial roles in lipid and glucose metabolism, respectively. Therefore, screening methods that help to rapidly identify activators of these receptors should be of considerable value. INV-75 activated a classic PPARα gene, Acetyl-CoA Oxidase (ACO) in a dose dependent and time dependent fashion (FIG. 6A). The time course experiment was performed in presence of INV-75 up to 15 hours. […] We next tested the specificity of INV-75 for PPARα by performing experiments in HepG2 cells transfected with yeast GAL4-PPARα-LBD plasmid+UAS-Luciferase; GAL4-PPARδ-LBD plasmid+UAS-Luciferase and […]. The PPARα, PPARδ and PPARγ binding assays were performed using multiple concentrations of INV-75 (1 μM, 10 μM, 100 μM and 1000 μM). The level of luciferase activity corresponded to the degree of PPAR activation. The results were compared with classic PPAR agonists such as WY-14643 (PPARα agonist), Bezafibrate (PPARδ agonist) and Rosiglitazone ([…]).

In the next assay the test system is SREBP-2. Kind of assay: SREBP2 nuclear binding by EMSA in HepG2 cells. The assay is classed as cell-based, human. The method, then:
FIG. 5A is a graph showing in vitro time course of course of Sterol Regulatory and Binding Protein-2 (SREBP2) activity measurement with INV-75. HepG2 cells were stimulated with INV-75 (0.1 mM) for four hours and the binding activity of SREBP2 to nuclear proteins was measured by electrophoretic migration shift assay (EMSA). A total of three experiments were performed. *, p<0.01 by ANOVA compared to vehicle.
FIG. 5B is a graph showing the dose dependent effects of INV-75 on SREBP2 activity. HepG2 cells were stimulated with multiple concentrations of INV-75 for 1 hour and binding activity of SREBP2 in nuclear proteins was measured by electrophoretic migration shift assay (EMSA). A total of three experiments were performed. *, p<0.01 by ANOVA compared to vehicle.
A family of transcription factors designated SREBP (sterol regulatory element binding proteins) regulate synthesis of cholesterol and fatty acids. Of these, SREBP-2 mainly regulates cholesterol biosynthesis by alteration of cholesterol synthesis enzymes and LDL receptor expression (SREBP-1c mainly regulates fatty acid synthesis). […] The time course with this dose and dose dependence was analyzed. Next we assessed the expression of both precursor and mature form of SREBP-2 in the cytoplasm by western analysis. Both time course and dose dependence of mature form of SREBP-2 was analyzed.
On the technique in general: A gel shift assay detects complexes by their altered migration in electrophoresis.

In assay [2] the test system is Watanabe Heritable Hyperlipidemic Rabbits (WHHL). Kind of assay: Western blot of VCAM-1 and ICAM-1 in WHHL rabbit aorta. The assay is classed as in vivo. As to the method: Samples were homogenized and solubilized in radioimmunoprecipitation assay buffer (50 mM Tris-HCl, pH 7.4, 150 mM NaCl, 1 mM EDTA, 1 mM NaF, 1 mM Na3VO4) and 1 mM phenylmethylsulfonyl fluoride, with 0.25% sodiumdeoxycholate and 1.0% Nonidet P-40) and centrifuged at 10,000 g and 4° C. for 30 min. The supernatant was collected and subjected to Western blot analysis. In brief, 40 μg of protein was separated by SDS-polyacrylamide gel electrophoresis and subsequently transferred to nitrocellulose membrane. The membrane was then incubated with: monoclonal anti-β-actin (Sigma, St. Louis, Mo.), monoclonal anti-VCAM (R&D Systems, Minneapolis, Minn.), monoclonal anti-ICAM (R&D Systems, Minneapolis, Minn.), monoclonal anti-phospho-eNOS(pS 1177) (BD Biosciences, Billerica, Mass.), rabbit anti-eNOS (Santa Cruz Biotechnology, Santa Cruz, Calif.), rabbit anti-phospho-Akt (Thr308) (Cell Signaling Technology, Danvers, Mass.), goat anti-Akt (Santa Cruz Biotechnology, Santa Cruz, Calif.), and rabbit anti-p65 (Cell Signaling Technology, Danvers, Mass.). Finally, the membranes were incubated with a horseradish peroxidase-linked secondary antibody and visualized with an enhanced chemiluminescence kit (Amersham Biosciences Inc., Piscataway, N.J.). Band density was quantified by densitometric analysis using ImageJ.
Background: A western blot detects proteins with antibodies after separation by electrophoresis.

A further assay concerns the target T2, PPARγ (Homo sapiens, UniProt P37231).
T2 construct: GAL4-PPARδ-LBD plasmid+UAS-Luciferase and GAL4-PPARα-LBD plasmid+UAS-Luciferase; expressed in transfected cells; host or cells: HepG2
Kind of assay: GAL4-PPARγ-LBD luciferase assay in HepG2 cells. Type of assay: cell-based. Particulars: 1 μM to 1000 μM.
Source text: as §1

The text below walks through data of patent US8198317B2, “Methylenedioxy phenolic compounds and their use to treat disease” (The Ohio State University Research Foundation, priority 2008, dated 2012).

The structures appear in SMILES notation.

T2 sequence (P37231 238-503 limits assumed, species assumed): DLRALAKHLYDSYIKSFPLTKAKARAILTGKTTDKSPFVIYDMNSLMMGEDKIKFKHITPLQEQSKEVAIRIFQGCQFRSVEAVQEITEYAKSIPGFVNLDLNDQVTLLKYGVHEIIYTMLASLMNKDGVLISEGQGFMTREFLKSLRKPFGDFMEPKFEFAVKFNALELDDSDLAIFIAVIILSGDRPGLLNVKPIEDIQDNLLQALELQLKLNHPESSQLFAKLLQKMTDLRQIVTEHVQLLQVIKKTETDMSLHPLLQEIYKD
T1 sequence (Q03181 211-439 limits assumed, species assumed): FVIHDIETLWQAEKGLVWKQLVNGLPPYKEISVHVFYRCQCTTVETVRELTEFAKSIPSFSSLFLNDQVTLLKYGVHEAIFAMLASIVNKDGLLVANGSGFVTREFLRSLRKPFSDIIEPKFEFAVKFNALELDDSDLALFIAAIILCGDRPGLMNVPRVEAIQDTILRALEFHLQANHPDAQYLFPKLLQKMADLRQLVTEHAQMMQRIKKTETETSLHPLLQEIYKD

For `CC(=O)Oc1cc2c(cc1[N+](=O)[O-])OCO2` [INV-75, 3,4-methylenedioxy-6-nitrophenyl acetate], in the assay with SREBP-1, the SREBP-1 regulation entry is listed as “no effects”. The “basal and stimulated superoxide production in aortic tissue lysates” value in assay [1] was “lower”. For the same molecule, on PPARδ, the “effects on PPARδ” value is on record as “without effects”. For the same molecule, in the assay with SREBP-2 (HepG2, 0.1 mM), the “time to increased nuclear binding of SREBP-2” value is under 1 h. Also, the “dose effective in inducing translocation of SREBP-2 to the nucleus” value in the assay on SREBP-2 (HepG2, 1 hour) is given as at least 100 nM. In addition, in assay [2], the “protein expression of ICAM-1” value is recorded as “markedly reduced” and the “protein expression of VCAM-1” value is “markedly reduced”. In addition, the “effects on PPARγ” value on PPARγ is recorded as “without effects”.
